Reference: patent US20030130493A1, “DNA encoding Edg7 receptor” (priority 1999, published 2003)

Legend:
human Edg7 receptor [1] = biological target: T1, human Edg7 receptor (Homo sapiens, UniProt Q9UBY5); test: Intracellular calcium mobilization (FLIPR, fluo-3) in Edg7-transfected CHO cells; assay type: cell-based; set-up: expressed in transfected cells; host or cells: CHO (transient, electroporation); details: for activity against Edg7: data not shown
T1 sequence (Q9UBY5 1-353): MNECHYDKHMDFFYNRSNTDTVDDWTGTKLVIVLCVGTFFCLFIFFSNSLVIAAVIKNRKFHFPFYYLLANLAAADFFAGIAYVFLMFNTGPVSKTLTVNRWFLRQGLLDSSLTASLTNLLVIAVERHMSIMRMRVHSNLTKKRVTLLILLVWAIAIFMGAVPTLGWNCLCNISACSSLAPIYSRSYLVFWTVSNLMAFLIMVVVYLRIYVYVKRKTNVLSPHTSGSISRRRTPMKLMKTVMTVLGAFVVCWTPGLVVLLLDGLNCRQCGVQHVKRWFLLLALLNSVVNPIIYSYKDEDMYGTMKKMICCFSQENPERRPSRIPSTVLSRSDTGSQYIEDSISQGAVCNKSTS
Description: (§1) Cells expressing the receptor of interest are plated into clear, flat-bottom, black-wall 96-well plates (Costar) at a density of 80,000-150,000 cells per well and allowed to incubate for 48 hr at 5% CO2, 37° C. The growth medium is aspirated and 100 μl of loading medium containing fluo-3 dye is added to each well. The loading medium contains: Hank's BSS (without phenol red)(Gibco), 20 mM HEPES (Sigma), 0.1 or 1% BSA (Sigma), dye/pluronic acid mixture (e.g. 1 mM Flou-3, AM (Molecular Probes) and 10% pluronic acid (Molecular Probes) mixed immediately before use), and 2.5 mM probenecid (Sigma)(prepared fresh) The cells are allowed to incubate for about 1 hour at 5% CO2, 37° C.
During the dye loading incubation the compound plate is prepared. The compounds are diluted in wash buffer (Hank's BSS (without phenol red), 20 mM HEPES, 2.5 mM probenecid) to a 4×final concentration and aliquoted into a clear v-bottom plate (Nunc). Following the incubation the cells are washed to remove the excess dye. A Denley plate washer is used to gently wash the cells 4 times and leave a 100 μl final volume of wash buffer in each well. The cell plate is placed in the center tray and the compound plate is placed in the right tray of the FLIPR. The FLIPR software is setup for the experiment, the experiment is run and the data are collected. The data are then analyzed using an excel spreadsheet program.

[2] = test system: mock (empty vector)-transfected Cos-7 cells; test: Inositol phosphate (IP) formation in mock (empty vector)-transfected Cos-7 cells; assay type: cell-based; details: 1 μM final concentration, n=4
Description: A typical protocol for the electroporation method as applied to Cos-7 cells is described as follows. Cells to be used for transfection are split 24 hours prior to the transfection to provide flasks which are subconfluent at the time of transfection. The cells are harvested by trypsinization resuspended in their growth media and counted. 5×10^6 cells are suspended in 300 μl of DMEM and placed into an electroporation cuvette. 8 μg of receptor DNA plus 8 μg of any additional DNA needed (e.g. G protein expression vector, reporter construct, antibiotic resistance marker, mock vector, etc.) is added to the cell suspension, the cuvette is placed into a BioRad Gene Pulser and subjected to an electrical pulse (Gene Pulser settings: 0.25 kV voltage, 950 μF capacitance). Following the pulse, 800 μl of complete DMEM is added to each cuvette and the suspension transferred to a sterile tube. Complete medium is added to each tube to bring the final cell concentration to 1×10^5 cells/100 μl. The cells are then plated as needed depending upon the type of assay to be performed. Edg7 receptor-mediated activation of the inositol phosphate (IP) second messenger pathways was assessed by radiometric measurement of IP products. […] 200 μL of scintillation cocktail is added to each well, and the radioactivity is determined by liquid scintillation counting.

human Edg7 receptor [3] = biological target: T1, human Edg7 receptor; test: Inositol phosphate (IP) release in Edg7-transfected Cos-7, HEK293 and CHO cells; assay type: cell-based; set-up: expressed in transfected cells; host or cells: Cos-7, HEK293, CHO (transient, electroporation); details: for ability to activate Edg7 (inositol phosphate formation): Cos-7 cells transfected with Edg7, varying concentrations
Description: A typical protocol for the electroporation method as applied to Cos-7 cells is described as follows. Cells to be used for transfection are split 24 hours prior to the transfection to provide flasks which are subconfluent at the time of transfection. The cells are harvested by trypsinization resuspended in their growth media and counted. 5×10^6 cells are suspended in 300 μl of DMEM and placed into an electroporation cuvette. 8 μg of receptor DNA plus 8 μg of any additional DNA needed (e.g. G protein expression vector, reporter construct, antibiotic resistance marker, mock vector, etc.) is added to the cell suspension, the cuvette is placed into a BioRad Gene Pulser and subjected to an electrical pulse (Gene Pulser settings: 0.25 kV voltage, 950 μF capacitance). Following the pulse, 800 μl of complete DMEM is added to each cuvette and the suspension transferred to a sterile tube. Complete medium is added to each tube to bring the final cell concentration to 1×10^5 cells/100 μl. The cells are then plated as needed depending upon the type of assay to be performed. Edg7 receptor-mediated activation of the inositol phosphate (IP) second messenger pathways was assessed by radiometric measurement of IP products. In a 96 well microplate format assay, cells are plated at a density of 70,000 cells per well and allowed to incubate for 24 hours. The cells are then labeled with 0.5 μCi [^3H]myo-inositol overnight at 37° C., 5% CO2. Immediately before the assay, the medium is removed and replaced with 90 μL of PBS containing 10 mM LiCl. The plates are then incubated for 15 min at 37° C., 5% CO2. Following the incubation, the cells are challenged with agonist (10 μl/well; 10×concentration) for 30 min at 37° C., 5% CO2. The challenge is terminated by the addition of 100 μL of 50% v/v trichloroacetic acid, followed by incubation at 4° C. for greater than 30 minutes. Total IPs are isolated from the lysate by ion exchange chromatography. Briefly, the lysed contents of the wells are transferred to a Multiscreen HV filter plate (Millipore) containing Dowex AG1-X8 (200-400 mesh, formate form). The filter plates are prepared adding 100μL of Dowex AG1-X8 suspension (50% v/v, water: resin) to each well. The filter plates are placed on a vacuum manifold to wash or elute the resin bed. Each well is first washed 2 times with 200 μl of 5 mM myo-inositol. Total [^3H]inositol phosphates are eluted with 75 μl of 1.2M ammonium formate/0.1M formic acid solution into 96-well plates. 200 μL of scintillation cocktail is added to each well, and the radioactivity is determined by liquid scintillation counting.

[4] = test system: mock DNA (empty vector)-transfected CHO cells; test: Intracellular calcium mobilization (FLIPR, fluo-3) in mock DNA-transfected CHO cells; assay type: cell-based, Chinese hamster; details: mean±SEM, n=6, read-out: EC50 of increase in intracellular calcium
Excerpt: In another method, the measurement of intracellular calcium can also be performed on a 96-well (or higher) format and with alternative calcium-sensitive indicators, preferred examples of these are: aequorin, Fluo-3, Fluo-4, Fluo-5, Calcium Green-1, Oregon Green, and 488 BAPTA. After activation of the receptors with agonist ligands the emission elicited by the change of intracellular calcium concentration can be measured by a luminometer, or a fluorescence imager; a preferred example of this is the fluorescence imager plate reader (FLIPR).
as §1
During the dye loading incubation the compound plate is prepared. […] The data are then analyzed using an excel spreadsheet program.

[5] = test system: LPA receptors endogenous to oocytes; test: Calcium-activated Cl- currents in control (uninjected) Xenopus oocytes; assay type: cell-based, Xenopus laevis
human Edg7 receptor [6] = biological target: T1, human Edg7 receptor; test: Calcium-activated Cl- currents in Xenopus oocytes injected with Edg7 mRNA; assay type: cell-based
Description: Oocytes are harvested from Xenopus laevis and injected with mRNA transcripts as previously described (Quick and Lester, 1994; Smith et al.,1997). Edg7 receptor RNA transcript is synthesized using the T7 polymerase (“Message Machine,” Ambion) from linearized plasmids or PCR products containing the complete coding region of the gene. Oocytes are injected with 1-50 ng synthetic receptor RNA and incubated for 3-8 days at 17° C. Currents are recorded under dual electrode voltage clamp (Axon Instruments Inc.) with 3 M KCl-filled glass microelectrodes having resistances of 1-2 Mohm. Unless otherwise specified, oocytes are voltage clamped at a holding potential of −80 mV. During recordings, oocytes are bathed in continuously flowing (1-3 ml/min) medium containing 96 mM NaCl, 2 mM KCl, 1.8 MM CaCl2, 1 mM MgCl2, and 5 mM HEPES, pH 7.5 (ND96). Drugs are applied either by local perfusion from a 10 μl glass capillary tube fixed at a distance of 0.5 mm from the oocyte, or by switching from a series of gravity fed perfusion lines.
Activation of the phospholipase C (PLC) pathway is assayed by applying a test compound in ND96 solution to oocytes previously injected with mRNA for the Edg7 receptor and observing inward currents at a holding potential of approximately −80 mV. The appearance of currents that reverse at −25 mV and display other properties of the Ca^++-activated Cl^− channel is indicative of receptor-activation of PLC and release of IP3 and intracellular Ca^++.
Involvement of the Gi/o class of G-proteins in GPCR-stimulated Ca^++-activated Cl^− currents is evaluated using PTX, a toxin which inactivates Gi/o G-proteins. Oocytes are injected with 25 ng PTX/oocyte and modulation of Ca^++-activated Cl^− currents by Edg7 receptor is evaluated 2-5 h subsequently.

O=c1ccn([C@@H]2O[C@H](COP(=O)(O)OP(=O)(O)OP(=O)(O)O)[C@@H](O)[C@H]2O)c(=O)[nH]1 [UTP]
intracellular calcium responses in Edg7- versus mock DNA-transfected cells (human Edg7 receptor [1]; CHO cells, n=3): almost identical

CCCCC/C=C\C/C=C\C/C=C\C/C=C\CCCC(=O)NCCO [anandamide]
activity against Edg7 (human Edg7 receptor [1]): inactive

CCCCCCCC/C=C\CCCCCCCC(=O)O [oleic acid]
activity against Edg7 (human Edg7 receptor [1]): inactive

CCCCCCCC/C=C\CCCCCCCC(=O)OCC(O)COP(=O)(O)O (centres unmarked) [oleoyl LPA, oleoyl lysophosphatidic acid]
average increase in IP production [2]: 2 fold | average increase in IP production (human Edg7 receptor [3]; Edg7-transfected Cos-7 cells, 1 μM final concentration, n=4): 3 fold | Emax of IP response (human Edg7 receptor [3]; all three cell lines (Cos-7, HEK 293, CHO)): 200-300% | peak intracellular calcium response in Edg7-transfected cells as compared to mock DNA-transfected cells (human Edg7 receptor [1]; CHO cells, 10 μM): approximately 3 fold | EC50 [4]: 347 ± 54 nM

CCCCC[C@H](O)/C=C/[C@H]1[C@H](O)CC(=O)[C@@H]1C/C=C\CCCC(=O)O [prostaglandin E2]
activity against Edg7 (human Edg7 receptor [1]): inactive

CCCCCCCCCCCCC/C=C/[C@@H](O)[C@@H](N)COP(=O)(O)O [sphingosine-1-phosphate]
ability to activate Edg7 (inositol phosphate formation) (human Edg7 receptor [3]): No dose-responsiveness | activation of Edg7 receptors (intracellular calcium) (human Edg7 receptor [1]; CHO cells, n=4): failed to activate

CCCCCCCCCCCCC/C=C/[C@@H](O)[C@@H](N)COP(=O)([O-])OCC[N+](C)(C)C [sphingosylphosphorylcholine]
ability to activate Edg7 (inositol phosphate formation) (human Edg7 receptor [3]): No dose-responsiveness

Lysophosphatidic acid [LPA]
inward Cl- currents, typical response ([5]; control oocytes lacking injection of foreign mRNA): 100-1000 nA | LPA response (Cl- current) after treatment with PTX ([5]; control oocytes, PTX 25 ng injected 2-5 h prior to recording): nearly abolished | Cl- current amplitude ([5]; uninjected oocytes, batch with low endogenous LPA activity, oleoyl LPA 1 μM, n=5): 18±18 nA | concentration at which nearly maximal responses were observed (human Edg7 receptor [6]; Edg7-injected oocytes, Cl- current): 100 nM | LPA response (Cl- current) after treatment with PTX (human Edg7 receptor [6]; Edg7-injected oocytes, PTX 25 ng injected 2-5 h prior to recording): substantial current remained | Cl- current amplitude (human Edg7 receptor [6]; oocytes injected with Edg7 mRNA, oleoyl LPA 1 μM, n=5): 1272±126 nA

lysophosphatidylserine
significantly different response in Edg7-expressing cells as compared to mock DNA-transfected cells (human Edg7 receptor [1]; CHO cells, intracellular calcium, 10 μM): significantly different response

phosphatidic acid
ability to activate Edg7 (inositol phosphate formation) (human Edg7 receptor [3]): partial agonist | activation of Edg7 receptors (intracellular calcium) (human Edg7 receptor [1]; CHO cells, n=4): agonist | increase in intracellular calcium (human Edg7 receptor [1]; Edg7 receptors, CHO cells, n=4): approximately 5 fold

phosphatidyl choline
activity against Edg7 (human Edg7 receptor [1]): inactive

platelet-activating factor
activity against Edg7 (human Edg7 receptor [1]): inactive

sphingomyelin
activity against Edg7 (human Edg7 receptor [1]): inactive

thromboxane B4
activity against Edg7 (human Edg7 receptor [1]): inactive
